“Also recorded” adds a separate entry of the source.
Legend:
[1] = test system: Pacata monkeys; test: Preliminary experiments in Pacata monkeys: working memory; type: in vivo
Excerpt: The present IDRAcompounds are useful for enhancing both short-term memory, long-term memory, and cognitive performance in man. […]. As a result, the compounds of the present invention are useful as therapeutic agents in memory impairment, e.g., due to toxicant exposure, brain injury, epilepsy, mental retardation in children and senile dementia, including Alzheimer's disease.

[2] = test system: rats; test: Water maze: drug action on alprazolam-disrupted learning behavior in rats; type: in vivo, rat; conditions: oral 5 mg/kg
[3] = test system: GABAA receptors; test: Preliminary electrophysiological and biochemical radiolabeled binding studies on GABAA receptors
[4] = Gross animal behavior; conditions: at effective doses
[5] = Entry into the brain (inferred from in vivo activity); conditions: inferred ("presumably") from in vivo activity or lack of it
[6] = test system: rats; test: Water maze: drug action on alprazolam-disrupted learning behavior in rats; type: in vivo, rat
Procedure: Rats (male 250 g b.w.) were trained two days, once a day, in maze A (See insert A). […] Rats were exposed to a new maze configuration (Maze B) in 4 successive trials 15, 30, 45, and 60 min after the i.p. injections.
The water maze apparatus was adapted from Kant et al., (16), and consists of three concentric squares placed inside a 5 ft plastic pool (FIG. 6). The walls of the maze are 50 cm in height and are constructed from black opaque plastic to allow for tracking of the animal with an overhead camera. The alleys between the walls are 16 cm wide. In the center of each wall there is a removable doorway. The opening of doorways allows for the construction of mazes with an increasing number of potential error possibilities. (See diagram for Maze A and Maze B, FIG. 6). The maze is located in a room 10'×15' at constant temperature (18° C.) adjacent to the vivarium. The room is illuminated with overhead lights which also serve as spatial cues. Additional spatial cues are provided by the position of the investigator and a number of small white x's placed within specific locations upon the walls of the maze. The maze is filled with water (18°)C. to a depth of 25 cm.
Seven days prior to drug studies, rats were tested in Maze A (forced maze) on two consecutive days. Pretesting with the "forced" maze enabled the assessment of the animals' general motor, sensory and motivational abilities, and facilitated the exclusion of those animals unable to meet pretesting criteria. Performance was assessed by determining either swim time, errors committed, or path length measured with a computerized recording device. Errors are defined as whole body entry into alleys not leading directly to the exit platform (i.e., shaded portions in FIG. 6). Rats were excluded from the study if their swim path length and/or number of errors were two standard deviations above the mean […] of the entire group. During the first two trials, the rats were placed into the center of the maze and given a maximum of 180 secs to find the "exit platform" located at the "finish" (FIG. 6). The time required, the number of errors, and the path length were recorded for each trial. […] Rats meeting the criteria were randomly divided into groups. On the day of the experiment, a single trial was run (Maze A) in order to establish a baseline of performance. Following drug administration, the rats were again tested once on Maze A to establish a baseline of post-treatment performance. Following an additional interatrial interval of 30 min., the rats were tested on Maze B.
In these experiments, rats were trained in Maze B 15, 30, 45 and 60 min. after drug injection.

[7] = test system: EPSCs elicited in CAl pyramidal neurons; test: Excitatory postsynaptic currents (EPSCs) in CAl pyramidal neurons in hippocampal slices on stimulation of Schaffer collateral afferents; type: cell-based, rat; conditions: in vitro; compared with (+) IDRA 21
Procedure: (§1) Young rats (12-16 days old) were decapitated and the brains quickly removed and placed in ice-cold Ringer solution. Thin slices of hippocampus (250 μm) were then cut with a vibratome slicer (Lancer, St. Louis, Mo.) and kept in Ringer solution at 37° C. until use. The experiments were carried out at room temperature with the slice totally submerged in a 1 ml volume recording chamber and under continuous perfusion with Ringer solution at a rate of 6 ml/min using an upright Hoffman modulation contrast microscope (Carl Zeiss, Germany) equipped with a 40×water immersion objective.
(§2) Ionic currents in whole-cell configuration and outside-out excised membrane patches were monitored using the patch clamp technique (15).
Traces were filtered at 3 KHz (-3 dB, 8-pole, lowpass Bessel filter, Frequency Devices), and stored in an LSI 11/73 computer (INDEC System, Sunnyvale, Calif.) after digitization (10 KHz) with a Data Translation analog to digital converter. Decay time constants of EPSC and glutamate-activated currents were determined from exponential fitting with the 11/73 system by using an entirely automated least-squares procedures (see Vicini and Schuetze, 1985, for further details). This method uses a Simplex algorithm (Caceci and Cacheris, 1984) to fit the data to either a single or double exponential equation of the form I(t)=If exp(-t/tauf)+Is exp(-t/taus), where If and Is are the amplitudes of the sIPSC fast and slow components, and tauf and taus are their respective decay time constants. Peak amplitudes were measured at the absolute maximum of the currents, taking into account the noise of the baseline and noise around the peak. Rise times were measured as the time elapsed from 20 to 80% of the peak amplitude of the response.
The action of nootropic drugs on the excitatory postsynaptic currents (EPSCs) elicited in CAl pyramidal neurons in hippocampal slices was investigated by stimulation of the Schaffer collateral afferents.

[8] = test system: AMPA receptor; test: Fast application with double barrel pipette: AMPA receptor desensitization in outside-out patches from CAl hippocampal pyramidal neurons; type: cell-based, rat; conditions: comparison compound, lower dose than IDRA 21, concentration not given
Procedure: as §1
(§3) Media and drug application. The external Ringer solution contained (in mM): NaCl 120; KCl 3.1; CaCl2 2; MgCl2 1; KH2 PO4 1; NaHCO3 26; glucose 2.7; and it was continuously bubbled with 95% O2 and 5% CO2. Patch pipettes were filled with a solution containing (in mM): K-gluconate 140; MgCl2 1; ATP.Mg 2; EGTA 0.5; HEPES-KOH 10, pH 7.2. All the drugs under investigation were applied through the recording chamber perfusion system via parallel inputs having a common entry into the chamber. Agonist application was attained using two different systems that allowed a slow or a rapid solution change. Slow solution changes were used during recordings in whole-cell configuration and were obtained by exchanging the solution of the recording chamber within a few seconds. Fast solution changes were obtained with the use of the Y-shaped tubing method that allows complete exchange of solution in less than 10 ms, and is described in detail by Murase et al. (1989).
Briefly, a polyethylene tubing (1 mm i.d.) is bent in a U-shaped, and another fine polyethylene tubing (50 μi.d.) and 10 mm length) is inserted into a small hole in the U-tubing making the tip of the Y-tubing. Solutions are fed to the Y-tubing by gravity, and negative pressure facilitates exchange of the solution. The tip of the Y-tubing is positioned 100 μm from the cell investigated, and upon opening and closing of a valve that controls the negative pressure, it was possible to respectively change rapidly and apply a number of different test solutions. This method was used to apply agonists to excised outside-out membrane patches. More rapid drug applications were used to apply agonists to excised outside-out membrane patches, and were obtained through a double-barrelled pipette positioned close to the recording pipette containing the membrane patch. […] The agonist was applied for a period of 150 ms and the time necessary for a complete exchange of the solution was less than 1 ms as measured at the opening of a patch pipette containing different dilutions of the drugs under study. […]
Ionic currents in whole-cell configuration and outside-out excised membrane patches were monitored using the patch clamp technique (15). […]

[9] = test system: kainate-activated current; test: Selectivity: ionic current elicited by 20 μM kainate; type: cell-based, rat
Procedure: as §1, §3, §2

Row | Compound | working memory enhancement [1] | potency vs racemate in preventing alprazolam-induced amnesia [2] | prevention of alprazolam-induced amnesia (enantiomers) [2] | direct action on GABAA receptors [3] | effect on gross animal behavior (exploratory behavior, stereotypy, ataxia, posture) [4] | brain uptake [5] | disruptive action of alprazolam ([6]; discussion statement) | dose dependence of learning and memory enhancing effect ([6]; rat, in vivo) | duration of learning and memory enhancing effect ([6]; rat, in vivo) | biological activity of enantiomers (summary) ([6]; summary statement) | efficacy in increasing excitatory synaptic strength in CAl pyramidal neurons [7] | removal of glutamate-induced desensitization [8] | antagonism of alprazolam amnesic effect ([6]; doses equimolar to IDRA 21 / (+) IDRA 21) | effect on kainate-activated current ([9]; 40 μM compound, 20 μM kainate) | effect on kainate responses at doses that decreased AMPA desensitization ([9]; all doses that decrease/inhibit AMPA desensitization)
1 | CC1Nc2ccc(Cl)cc2S(=O)(=O)N1 (single isomer, unassigned; (+)) [(+) IDRA 21] | very potent in enhancing working memory | significantly more potent than (±) IDRA; also recorded: more potent that (±) IDRA 21 | active in preventing alprazolam-induced amnesia in rats | fails to act directly on GABAA receptors | no changes in exploratory behavior, stereotypy, ataxia, posture, etc. | taken up by the brain in a sufficient quantity to produce learning and memory enhancing effects | antagonizes the disruptive action of alprazolam | dose-dependent | > 1 h | biologically active | – | – | – | – | –
2 | NS(=O)(=O)c1cc2c(cc1Cl)NC(C1CC3C=CC1C3)NS2(=O)=O (stereo not shown) [cyclothiazide, reference compound] | – | – | – | – | – | fail to enter the brain | – | – | – | – | at least as efficacious as (+) IDRA 21 | completely removed the desensitization induced by glutamate | unable to antagonize alprazolam-induced impairment of learning behavior | increased the current | potently potentiated kainate responses
